# Source: patent US20230285389A1, “USE OF CSF-1R KINASE INHIBITOR” (Shanghai Runshi Medical Technology Co., Ltd, priority 2020, published 2023)
# Columns and labels:
# [1] = test system: CSF-1-induced bone marrow-derived macrophages (BMDM); test: CSF-1-induced murine-derived macrophage (BMDM) survival (CCK-8); type: cell-based, BALB/c mice; conditions: Mus musculus, 168 h, read-out: IC50 inhibition of cell survival, BMDM (CSF-1)
# Protocol: BALB/c mice (female, 6 weeks old, healthy) were sacrificed. Bone marrow cells were taken from their femurs and tibia, and seeded into a 96-well culture plate at appropriate densities (90 µL per well) after erythrobiasis treatment. 100 ng/mL of CSF-1 factor was added to each well to induce macrophages (Bone marrow-derived macrophages, BMDM), and compounds at various concentrations were added and the plate was allowed for incubation for 7 days. A solvent control group (negative control) was set. After 7 day-exposure of the cells to the compounds, 10 µL of CCK-8 reagent was added to each well. The culture plate was placed in an incubator at 37° C. for 2-4 h, and then was read with a full-wavelength microplate reader setting at the wavelength of 450 nm.
# [2] = test system: MC38 subcutaneous xenograft; test: Immune cell subpopulation scan in tumor tissue of MC38 xenograft model; type: in vivo, mouse
# Protocol: (§1) MC38 cells in good condition were re-suspended to 25 million cells/mL. 200 µL of cell suspension was inoculated subcutaneously in the right armpit of each mouse. When the tumor cells formed subcutaneous xenograft in the mice and grew to an average volume of approximately 100 mm^3, the mice were randomly assigned to the dosing group and the control group. The test compounds were prepared at the desired concentrations and corresponding equal amount of solvent was used as a solvent control. The drugs were administrated orally, and administrated once per day for 24 consecutive days.
# During the dosing period, the xenograft volumes of the mice and the weights of the mice were measured every 2-4 days. When the MC38 subcutaneous xenograft from the solvent control group of grew to 700-800 mm^3, the experiment was stopped. Fresh tumors removed from the mice were sheared with scissors into fragments no more than 2 mm^3. The digestive enzyme was prepared according to the instructions of Tumor Dissociation Kit. The tumor tissue mass was re-suspended with 2.5 mL of prepared enzyme solution, and was placed into a gentleMACS™ Dissociator instrument for dissociating the tumor with a selected program. After completion of dissociation, the suspension was filtered with a 70 µM filter screen to obtain a cell suspension. The cell suspension was lysed with an erythrocyte lysing agent for 10 min, centrifuged at 300 g for 5 min, and re-suspended with PBS. Desired amount of cells were taken out after cell counting. The cells were first washed twice with PBS. After washing, each sample was re-suspended with 100 µL of PBS and 0.5 µL of the fluorescent antibody prepared according to the manufacturer’s instructions to distinguish dead and live cells was added. The samples were stained in the dark at 4° C. for 30 min. After 30 min, the samples were washed twice with 1 mL of the running buffer and the tubes were centrifuged at 300 g for 5 min at 4° C. The blocking antibody diluent was prepared by adding 2 µL of blocking antibody TruStain fcX™ (anti-mouse CD16/32) per 100 µL running buffer and was added on the basis of the 100 µL system of each sample. After blocking for 10 min, according to the manufacturer’s instructions, the fluorescent antibody corresponding to the surface protein was added to the samples, and the reactant was allowed for incubation at 4° C. for 30 min. At this step, a single staining control and an FMO control were set. Then, the samples were washed twice with 1 mL of the running buffer, and centrifuged at 300 g for 5 min at 4° C. each time.
# If only surface proteins were to be examined, after centrifugation, the samples were re-suspended with 300 µL of PBS and immediately input into machines, or the samples were fixed with 4% paraformaldehyde for 15 min, and centrifuged at 500 g for 7 min. The supernatants were discarded and the pellets were re-suspended with PBS and stored for further machine analysis.
# If intracellular factors were to be examined as well, when the supernatants were discarded after centrifugation, 100 µL of re-suspended samples were retained. IC fixation solution in Intracellular Fixation & Permeabilization Buffer Set was added to each sample based on the 100 µL volume. The samples were placed at 4° C. for fixation for 30 min. After the fixation was completed, the samples were centrifuged at 500 g for 7 min. 10×Permeabilization Buffer was prepared into 1×membrane destructive solution with triple distilled water. After centrifugation, 2 mL of 1×membrane destructive solution was added to each sample to re-suspend the samples, and the samples were centrifuged at 500 g for 7 min. The process was repeated twice. 1×membrane destructive solution was used to prepare the intracellular fluorescent antibody as recommended in the instructions for antibody. The cells were re-suspended in a system of 100 µL per well, and placed at 4° C. to stain for 30 min. At this step, a single staining control and an FMO control were set. […]
# [3] = test system: mouse colon cancer MC38 xenografts; test: Pharmacodynamic experiment, growth of subcutaneous MC38 xenografts; type: in vivo; conditions: for TV (mean ±SEM) D0: day 0 (baseline); for TGI D7 / TV (mean ±SEM) D7: day 7; for TGI D14 / TV (mean ±SEM) D14: day 14; for TGI D20 / TV (mean ±SEM) D20: day 20; for TGI D24 / TV (mean ±SEM) D24: day 24
# Protocol: as §1
# During the dosing period, the xenograft volumes of the mice and the weights of the mice were measured every 2-4 days. The experiment was terminated 24 days after dosing.
# The tumor volume (TV) was calculated as TV = ½×a×b^2, where “a” and “b” are the length and width of an xenograft, respectively.
# Statistical tests were performed using the t test, with p≤0.05 representing a significant difference.
# [4] = each dose group, oral once per day
smiles,measurement,setting,value
CNC(=O)c1cccc2cc(Oc3ccnc(NC(=O)c4ccc(N5C[C@@H](C)N[C@@H](C)C5)cc4)c3)ccc12 [Compound I],IC50,[1],10.2 ± 0.8 nM
same,infiltration of Granzyme B+CD8+ T cells vs solvent control,[2]; 10 mg/kg group,significantly increased
same,infiltration of CD206+ M2-biased macrophages in TAMs,[2]; [4],further down-regulated
same,infiltration of TAMs in tumor tissue vs solvent control,[2]; [4],significantly reduced
same,infiltration of CD8+ T cells vs solvent control,[2]; oral once per day,no significant change
same,infiltration of IFNγ+CD8+ T cells vs solvent control,[2]; oral once per day,no significant change
same,infiltration of Treg cells,[2]; oral once per day,significantly reduced
same,TV (mean ±SEM) D0,[3]; 2.5 mg/kg oral once per day,79±13 mm3
same,TGI D7,[3]; 2.5 mg/kg oral once per day,63.3%
same,TV (mean ±SEM) D7,[3]; 2.5 mg/kg oral once per day,119±17 mm3
same,TGI D14,[3]; 2.5 mg/kg oral once per day,63.0%
same,TV (mean ±SEM) D14,[3]; 2.5 mg/kg oral once per day,232±39 mm3
same,TGI D20,[3]; 2.5 mg/kg oral once per day,74.6%
same,TV (mean ±SEM) D20,[3]; 2.5 mg/kg oral once per day,281±59 mm3
same,TGI D24,[3]; 2.5 mg/kg oral once per day,75.3%
same,TV (mean ±SEM) D24,[3]; 2.5 mg/kg oral once per day,348±80 mm3
same,TV (mean ±SEM) D0,[3]; 10 mg/kg oral once per day,79±12 mm3
same,TGI D7,[3]; 10 mg/kg oral once per day,100.9%
same,TV (mean ±SEM) D7,[3]; 10 mg/kg oral once per day,78±15 mm3
same,TGI D14,[3]; 10 mg/kg oral once per day,90.1%
same,TV (mean ±SEM) D14,[3]; 10 mg/kg oral once per day,120±42 mm3
same,TGI D20,[3]; 10 mg/kg oral once per day,95.2%
same,TV (mean ±SEM) D20,[3]; 10 mg/kg oral once per day,117±46 mm3
same,TGI D24,[3]; 10 mg/kg oral once per day,93.4%
same,TV (mean ±SEM) D24,[3]; 10 mg/kg oral once per day,150±64 mm3
same,growth of murine colon cancer MC38 cell xenografts,[3]; oral once per day for 24 days,significantly inhibited
